Test results from patent publication US9284345B2 (priority 2007, dated 2016).
Like-named read-outs stand apart in the source and are kept apart here.

How the values were obtained:
[1] = target: T1, Human Androgen Receptor (Homo sapiens, UniProt P10275); format: binding
T1 construct: expressed in transfected cells; host or cells: HEK-293 cells stably transfected with the pCMVneo-hAR plasmid (G-418 selection); cytosol used
T1 sequence (P10275 1-920): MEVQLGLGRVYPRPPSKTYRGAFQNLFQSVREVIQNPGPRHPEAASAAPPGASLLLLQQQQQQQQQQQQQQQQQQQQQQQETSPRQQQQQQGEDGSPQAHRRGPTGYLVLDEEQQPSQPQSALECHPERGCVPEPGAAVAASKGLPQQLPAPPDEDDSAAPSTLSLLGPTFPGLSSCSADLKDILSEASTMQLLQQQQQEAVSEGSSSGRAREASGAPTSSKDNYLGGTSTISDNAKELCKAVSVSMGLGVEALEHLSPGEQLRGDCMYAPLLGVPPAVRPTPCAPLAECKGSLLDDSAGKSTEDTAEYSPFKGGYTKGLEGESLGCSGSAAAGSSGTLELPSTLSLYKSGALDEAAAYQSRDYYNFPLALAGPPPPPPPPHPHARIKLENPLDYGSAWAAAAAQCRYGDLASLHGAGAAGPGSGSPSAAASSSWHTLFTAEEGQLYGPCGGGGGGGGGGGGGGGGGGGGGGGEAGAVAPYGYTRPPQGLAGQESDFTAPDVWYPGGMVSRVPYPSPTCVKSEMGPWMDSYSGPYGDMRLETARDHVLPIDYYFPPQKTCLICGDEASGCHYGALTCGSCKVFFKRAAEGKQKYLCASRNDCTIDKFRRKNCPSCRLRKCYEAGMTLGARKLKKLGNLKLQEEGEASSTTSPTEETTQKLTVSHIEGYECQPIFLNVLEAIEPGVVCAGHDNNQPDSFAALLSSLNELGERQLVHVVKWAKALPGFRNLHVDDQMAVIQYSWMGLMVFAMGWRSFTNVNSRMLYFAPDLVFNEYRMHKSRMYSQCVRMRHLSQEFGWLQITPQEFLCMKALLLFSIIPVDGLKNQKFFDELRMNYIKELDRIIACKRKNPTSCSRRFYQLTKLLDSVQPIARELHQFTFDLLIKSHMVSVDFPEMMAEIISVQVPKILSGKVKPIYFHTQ

[2] = tested on: Shionogi mouse mammary carcinoma cells; test: cells; format: cell-based; settings: for Ki: read-out: Shionogi cells Antiandrogenic activity Ki; for % of inh of DHT at 10^−7 M (Basal = 100%): 0.0003 µM
[3] = tested on: Immature Rat CX + DHT; test: animal or person; format: in vivo; settings: po; for change in vivo at 0.1 mg / change in vivo at 0.5 mg: Rattus norvegicus, 168 h
[4] = tested on: Immature Rat CX; settings: for In Vivo Agonist % Change vs CX (DHT = +100%) SV / In Vivo Agonist % Change vs CX (DHT = +100%) VP: po
[5] = tested on: Intact Rat; test: In vivo activity in intact rat (organ and muscle weight); settings: rat, in vivo
[6] = read-out: In Vivo Antagonist % Change vs DHT (CX = −100%) SV
[7] = read-out: In Vivo Antagonist % Change vs DHT (CX = −100%) VP

C[C@]12CCC3c4ccc(C#N)cc4CCC3C1CC[C@@]2(O)Cc1ccc(-c2ccncc2)cc1 (stereo partly shown) [EM-4240]
Human Androgen Receptor Binding RBA (%) R1881 = 100% [1]: 110% | Shionogi cells Antiandrogenic activity Ki OH-Flu/Ki compound [2]: 1.4 | Ki [2]: 24 nM | change in vivo at 0.1 mg [3, 6]: -58 ± 2% | change in vivo at 0.5 mg [3, 6]: -85% | change in vivo at 0.1 mg [3, 7]: -46 ± 9% | change in vivo at 0.5 mg [3, 7]: -52% | In Vivo Agonist % Change vs CX (DHT = +100%) SV [4]: +3 ± 1% | In Vivo Agonist % Change vs CX (DHT = +100%) VP [4]: +12 ± 3%

C[C@]12CCC3c4ccc(C#N)c(F)c4CCC3C1CC[C@@]2(O)Cc1ccncc1 (stereo partly shown) [EM-5855]
Human Androgen Receptor Binding RBA (%) R1881 = 100% [1]: 8.2 ± 0.5% | Shionogi cells Antiandrogenic activity Ki OH-Flu/Ki compound [2]: 11 ± 1 | Ki [2]: 1 ± 0.2 nM | In Vivo Agonist % Change vs CX (DHT = +100%) SV [4]: [1 ± 4] % | In Vivo Agonist % Change vs CX (DHT = +100%) VP [4]: [2 ± 1] %

C[C@]12CCC3c4ccc(C#N)c(Cl)c4CCC3C1CCC[C@@]2(O)Cc1ccncc1 (stereo partly shown) [EM-5943]
Human Androgen Receptor Binding RBA (%) R1881 = 100% [1]: 26% | Ki [2]: 2.1 ± 1.8 nM | In Vivo Agonist % Change vs CX (DHT = +100%) SV [4]: +3 ± 4% | In Vivo Agonist % Change vs CX (DHT = +100%) VP [4]: +2 ± 2%

Cc1c(C#N)ccc2c1CCC1C2CC[C@@]2(C)C1CC[C@@]2(O)Cc1ccncc1 (stereo partly shown) [EM-5984]
Human Androgen Receptor Binding RBA (%) R1881 = 100% [1]: 29% | Shionogi cells Antiandrogenic activity Ki OH-Flu/Ki compound [2]: 4.0 | Ki [2]: 1.9 nM | In Vivo Agonist % Change vs CX (DHT = +100%) SV [4]: 0% | In Vivo Agonist % Change vs CX (DHT = +100%) VP [4]: 0%

C[C@]12CCC3c4ccc(C#N)c(Cl)c4CCC3C1CC[C@@]2(O)Cc1cc[n+]([O-])cc1F (stereo partly shown) [EM-5987]
Human Androgen Receptor Binding RBA (%) R1881 = 100% [1]: 6.8 ± 1.7% | Ki [2]: 0.35 ± 0.15 nM | change in vivo at 0.5 mg [3, 6]: -83% | change in vivo at 0.5 mg [3, 7]: -69%

C[C@]12CCC3c4ccc(C#N)c(Cl)c4CCC3C1CC[C@@]2(O)Cc1ccncc1F (stereo partly shown) [EM-5988]
Human Androgen Receptor Binding RBA (%) R1881 = 100% [1]: 97 ± 19% | Shionogi cells Antiandrogenic activity Ki (nM) [2]: mixed | Shionogi cells Antiandrogenic activity Ki OH-Flu/Ki compound [2]: mixed | In Vivo Antagonist % Change vs DHT (CX = −100%) SV ([3]; rat, in vivo): [−83 ± 3] % | In Vivo Antagonist % Change vs DHT (CX = −100%) VP ([3]; rat, in vivo): [−71 ± 5] % | In Vivo Agonist % Change vs CX (DHT = +100%) SV [4]: +10 ± 0% | In Vivo Agonist % Change vs CX (DHT = +100%) VP [4]: +10 ± 0%

C[C@H]1C[C@@]2(C)C(CC[C@@]2(O)Cc2ccncc2)C2CCc3c(ccc(C#N)c3F)C21 (stereo partly shown) [EM-6582]
Human Androgen Receptor Binding RBA (%) R1881 = 100% [1]: 331% | % of stim of basal at 10^−7M (% over basal) [2]: +145 ± 78% | % of stim of basal at 10^−7 M (DHT = 100%) [2]: +41 ± 22% | % of inh of DHT at 10^−7 M (Basal = 100%) [2]: +59 ± 22% | In Vivo Anti-A Rat CX + DHT % change vs DHT (CX CONT = −100%) SV ([3]; rat, in vivo): −60 ± 6% | In Vivo Anti-A Rat CX + DHT % change vs DHT (CX CONT = −100%) VP ([3]; rat, in vivo): −36 ± 1% | In Vivo Intact Rat % change vs Intact CONT (Intact CONT = +100%; CX CONT = 0%) Bulbo [5]: +197 ± 29% | In Vivo Intact Rat % change vs Intact CONT (Intact CONT = +100%; CX CONT = 0%) SZ [5]: +49 ± 5% | In Vivo Intact Rat % change vs Intact CONT (Intact CONT = +100%; CX CONT = 0%) VP [5]: +72 ± 6% | In Vivo Agonist Rat CX % change vs CX (DHT CONT = +100%) Bulbo [4]: +71 ± 15% | In Vivo Agonist Rat CX % change vs CX (DHT CONT = +100%) SV [4]: +18 ± 3% | In Vivo Agonist Rat CX % change vs CX (DHT CONT = +100%) VP [4]: +37 ± 3%

C[C@H]1C[C@@]2(C)C(CC[C@@]2(O)Cc2ccncc2F)C2CCc3c(ccc(C#N)c3F)C21 (stereo partly shown) [EM-6594]
Human Androgen Receptor Binding RBA (%) R1881 = 100% [1]: 292% | % of stim of basal at 10^−7M (% over basal) [2]: +224% | % of stim of basal at 10^−7 M (DHT = 100%) [2]: +63% | % of inh of DHT at 10^−7 M (Basal = 100%) [2]: +37% | In Vivo Anti-A Rat CX + DHT % change vs DHT (CX CONT = −100%) SV ([3]; rat, in vivo): [−69 ± 4] % | In Vivo Anti-A Rat CX + DHT % change vs DHT (CX CONT = −100%) VP ([3]; rat, in vivo): [−56 ± 4] % | In Vivo Agonist Rat CX % change vs CX (DHT CONT = +100%) Bulbo [4]: +97 ± 19% | In Vivo Agonist Rat CX % change vs CX (DHT CONT = +100%) SV [4]: +13 ± 2% | In Vivo Agonist Rat CX % change vs CX (DHT CONT = +100%) VP [4]: +28 ± 7%
